From PubChem BioAssay (NCI)
Where “and” joins values, the source holds several entries; their conditions need not be identical. Equal entries are not always repeated.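 Step 1: Grow cells in 96-well plates. Step 2: Expose to compound for 48 hours at 5 concentrations. Step 3: Interpolate endpoints linearly; if unreached, use highest concentration. GI50 is the concentration that inhibits growth by half. Definition used: TGI = concentration required for complete inhibition of growth.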

Key:
Experiment in all cases: NCI tumour cell line growth inhibition, 48 h
UACC-257 melanoma = tested on: UACC-257 melanoma
HCT-15 colon = tested on: HCT-15 colon
A498 renal = tested on: A498 renal
SK-OV-3 ovarian = tested on: SK-OV-3 ovarian
RXF 393 renal = tested on: RXF 393 renal
K-562 leukemia = tested on: K-562 leukemia
SR leukemia = tested on: SR leukemia
DMS 273 small cell lung = tested on: DMS 273 small cell lung
MALME-3M melanoma = tested on: MALME-3M melanoma
ACHN renal = tested on: ACHN renal
DLD-1 colon = tested on: DLD-1 colon
HCC-2998 colon = tested on: HCC-2998 colon
SF-268 CNS = tested on: SF-268 CNS
A549 NSCLC = tested on: A549 NSCLC
KM20L2 colon = tested on: KM20L2 colon
HOP-92 NSCLC = tested on: HOP-92 NSCLC
SK-MEL-2 melanoma = tested on: SK-MEL-2 melanoma
HCT-116 colon = tested on: HCT-116 colon
UACC-62 melanoma = tested on: UACC-62 melanoma
NCI-H460 lung = tested on: NCI-H460 lung
TK-10 renal = tested on: TK-10 renal
RXF-631 renal = tested on: RXF-631 renal
OVCAR-5 ovarian = tested on: OVCAR-5 ovarian
KM12 colon = tested on: KM12 colon
SK-MEL-5 melanoma = tested on: SK-MEL-5 melanoma
NCI-H23 lung = tested on: NCI-H23 lung
RPMI-8226 leukemia = tested on: RPMI-8226 leukemia
LOX IMVI melanoma = tested on: LOX IMVI melanoma
UO-31 renal = tested on: UO-31 renal
SNB-75 CNS = tested on: SNB-75 CNS
HT29 colon = tested on: HT29 colon
LXFL 529 NSCLC = tested on: LXFL 529 NSCLC
OVCAR-3 ovarian = tested on: OVCAR-3 ovarian
EKVX NSCLC = tested on: EKVX NSCLC
MOLT-4 leukemia = tested on: MOLT-4 leukemia
HOP-18 NSCLC = tested on: HOP-18 NSCLC
M19-MEL melanoma = tested on: M19-MEL melanoma
U251 CNS = tested on: U251 CNS
HOP-62 NSCLC = tested on: HOP-62 NSCLC
SNB-78 CNS = tested on: SNB-78 CNS
786-0 renal = tested on: 786-0 renal
OVCAR-8 ovarian = tested on: OVCAR-8 ovarian
SK-MEL-28 melanoma = tested on: SK-MEL-28 melanoma
CCRF-CEM leukemia = tested on: CCRF-CEM leukemia
NCI-H522 lung = tested on: NCI-H522 lung
M14 melanoma = tested on: M14 melanoma
SNB-19 CNS = tested on: SNB-19 CNS
SF-295 CNS = tested on: SF-295 CNS
HL-60(TB) leukemia = tested on: HL-60(TB) leukemia
IGROV1 ovarian = tested on: IGROV1 ovarian
CAKI-1 renal = tested on: CAKI-1 renal
OVCAR-4 ovarian = tested on: OVCAR-4 ovarian
SF-539 CNS = tested on: SF-539 CNS
SW-620 colon = tested on: SW-620 colon
DMS 114 small cell lung = tested on: DMS 114 small cell lung
SN12C renal = tested on: SN12C renal
XF 498 CNS = tested on: XF 498 CNS
NCI-H226 lung = tested on: NCI-H226 lung
COLO 205 colon = tested on: COLO 205 colon

## CCCCCCCCCCCCCC(=O)OC(/C=C/C(C)C)C(O)C(O)C(OC)C(=O)NC1CCCCN(C)C1=O (configuration not stated)
UACC-257 melanoma
  GI50: > 49 µM
  TGI: 18.3 µM and > 49 µM
HCT-15 colon
  TGI: 7.55 µM and > 49 µM
A498 renal
  GI50: > 49 µM
  TGI: 32.5 µM and > 49 µM
SK-OV-3 ovarian
  GI50: > 49 µM
  TGI: 11.5 µM and > 49 µM
RXF 393 renal
  GI50: > 49 µM
  TGI: 6.22 µM and > 49 µM
K-562 leukemia
  GI50: > 49 µM
  TGI: 13.4 µM and > 49 µM
SR leukemia
  GI50: 1.12 µM
  TGI: 4.78 µM and 5.75 µM
DMS 273 small cell lung
  GI50: > 49 µM
  TGI: 4.98 µM and > 49 µM
MALME-3M melanoma
  TGI: 7.93 µM and > 49 µM
ACHN renal
  TGI: 5.14 µM and > 49 µM
DLD-1 colon
  GI50: > 49 µM
  TGI: 6.56 µM and > 49 µM
HCC-2998 colon
  TGI: 5.54 µM and > 49 µM
SF-268 CNS
  TGI: 8.63 µM and > 49 µM
A549 NSCLC
  TGI: 5.06 µM and > 49 µM
KM20L2 colon
  GI50: > 49 µM
  TGI: 7.64 µM and > 49 µM
HOP-92 NSCLC
  GI50: > 49 µM
  TGI: > 49 µM
SK-MEL-2 melanoma
  GI50: > 49 µM
  TGI: 9.12 µM and > 49 µM
HCT-116 colon
  GI50: > 49 µM
  TGI: 5.46 µM and > 49 µM
UACC-62 melanoma
  TGI: 6.15 µM and > 49 µM
NCI-H460 lung
  TGI: 5.79 µM and > 49 µM
TK-10 renal
  GI50: > 49 µM
  TGI: 32.5 µM and > 49 µM
RXF-631 renal
  GI50: > 49 µM
  TGI: 7.52 µM and > 49 µM
OVCAR-5 ovarian
  GI50: > 49 µM
  TGI: 10.8 µM and > 49 µM
KM12 colon
  TGI: 7.49 µM and > 49 µM
SK-MEL-5 melanoma
  TGI: 5.92 µM and > 49 µM
NCI-H23 lung
  TGI: 6.48 µM and > 49 µM
RPMI-8226 leukemia
  GI50: > 49 µM
  TGI: 9.97 µM and > 49 µM
LOX IMVI melanoma
  TGI: 6.53 µM and > 49 µM
UO-31 renal
  GI50: > 49 µM
  TGI: 5.25 µM and > 49 µM
SNB-75 CNS
  TGI: 8.6 µM and > 49 µM
HT29 colon
  TGI: 7.01 µM and > 49 µM
LXFL 529 NSCLC
  GI50: > 49 µM
  TGI: 6.89 µM and > 49 µM
OVCAR-3 ovarian
  TGI: 8.03 µM and > 49 µM
EKVX NSCLC
  GI50: 5.01 µM and 15.7 µM
  TGI: 17.3 µM and > 49 µM
MOLT-4 leukemia
  TGI: 7.54 µM and > 49 µM
HOP-18 NSCLC
  GI50: 6.44 µM
  TGI: 9.84 µM and > 49 µM
M19-MEL melanoma
  GI50: > 49 µM
  TGI: 7.5 µM and > 49 µM
U251 CNS
  TGI: 6.43 µM and > 49 µM
HOP-62 NSCLC
  TGI: 6.54 µM and > 49 µM
SNB-78 CNS
  TGI: 14.8 µM
786-0 renal
  TGI: 5.94 µM and > 49 µM
OVCAR-8 ovarian
  TGI: 8.44 µM and > 49 µM
SK-MEL-28 melanoma
  GI50: > 49 µM
  TGI: 7.64 µM and > 49 µM
CCRF-CEM leukemia
  GI50: > 49 µM
  TGI: 10.7 µM and > 49 µM
NCI-H522 lung
  TGI: 6.67 µM and > 49 µM
M14 melanoma
  GI50: > 49 µM
  TGI: 6.09 µM and > 49 µM
SNB-19 CNS
  GI50: > 49 µM
  TGI: 6.46 µM and > 49 µM
SF-295 CNS
  TGI: 5.97 µM and > 49 µM
HL-60(TB) leukemia
  TGI: 5.49 µM and 10.4 µM and > 49 µM
IGROV1 ovarian
  TGI: 5.9 µM and > 49 µM
CAKI-1 renal
  TGI: 7.51 µM
OVCAR-4 ovarian
  TGI: 7.57 µM and > 49 µM
SF-539 CNS
  TGI: 7.18 µM and > 49 µM
SW-620 colon
  GI50: > 49 µM
  TGI: 6.06 µM and > 49 µM
DMS 114 small cell lung
  GI50: > 49 µM
  TGI: 5.44 µM and > 49 µM

## COc1ccccc1N1C(=O)C2c3[nH]c4ccccc4c3C3CCC(C(C)(C)C)CC3C2C1=O (configuration not stated)
UACC-257 melanoma
  TGI: > 100 µM
HCT-15 colon
  TGI: > 100 µM
A498 renal
  TGI: > 100 µM
SK-OV-3 ovarian
  TGI: > 100 µM
RXF 393 renal
  TGI: > 100 µM
K-562 leukemia
  TGI: > 100 µM
SR leukemia
  TGI: > 100 µM
DMS 273 small cell lung
  TGI: > 100 µM
MALME-3M melanoma
  TGI: > 100 µM
ACHN renal
  TGI: > 100 µM
SN12C renal
  TGI: > 100 µM
DLD-1 colon
  TGI: > 100 µM
XF 498 CNS
  TGI: > 100 µM
HCC-2998 colon
  TGI: > 100 µM
SF-268 CNS
  TGI: > 100 µM
A549 NSCLC
  TGI: > 100 µM
KM20L2 colon
  TGI: > 100 µM
HOP-92 NSCLC
  TGI: > 100 µM
HCT-116 colon
  TGI: > 100 µM
UACC-62 melanoma
  TGI: > 100 µM
SK-MEL-5 melanoma
  TGI: > 100 µM
NCI-H23 lung
  TGI: > 100 µM
RPMI-8226 leukemia
  TGI: > 100 µM
UO-31 renal
  TGI: > 100 µM
SNB-75 CNS
  TGI: > 100 µM
HT29 colon
  TGI: > 100 µM
LXFL 529 NSCLC
  TGI: > 100 µM
EKVX NSCLC
  TGI: > 100 µM
MOLT-4 leukemia
  TGI: > 100 µM
HOP-18 NSCLC
  TGI: > 100 µM
M19-MEL melanoma
  TGI: > 100 µM
U251 CNS
  TGI: > 100 µM
HOP-62 NSCLC
  TGI: > 100 µM
SNB-78 CNS
  TGI: > 100 µM
786-0 renal
  TGI: > 100 µM
NCI-H226 lung
  TGI: > 100 µM
OVCAR-8 ovarian
  TGI: > 100 µM
COLO 205 colon
  TGI: > 100 µM
SK-MEL-28 melanoma
  TGI: > 100 µM
CCRF-CEM leukemia
  TGI: > 100 µM
NCI-H522 lung
  TGI: > 100 µM
M14 melanoma
  TGI: > 100 µM
SNB-19 CNS
  TGI: > 100 µM
SF-295 CNS
  TGI: > 100 µM
HL-60(TB) leukemia
  TGI: > 100 µM
IGROV1 ovarian
  TGI: > 100 µM
OVCAR-4 ovarian
  TGI: > 100 µM
SF-539 CNS
  TGI: > 100 µM
SW-620 colon
  TGI: > 100 µM
DMS 114 small cell lung
  TGI: > 100 µM

## Cc1ccc(S(=O)(=O)OC[C@@H]2CO2)cc1
UACC-257 melanoma
  TGI: > 100 µM
HCT-15 colon
  TGI: > 100 µM
A498 renal
  TGI: > 100 µM
RXF 393 renal
  TGI: > 100 µM
K-562 leukemia
  TGI: > 100 µM
SR leukemia
  TGI: > 100 µM
DMS 273 small cell lung
  TGI: > 100 µM
MALME-3M melanoma
  TGI: > 100 µM
ACHN renal
  TGI: > 100 µM
SN12C renal
  TGI: > 100 µM
DLD-1 colon
  TGI: > 100 µM
HCC-2998 colon
  TGI: > 100 µM
A549 NSCLC
  TGI: > 100 µM
KM20L2 colon
  TGI: > 100 µM
HOP-92 NSCLC
  TGI: > 100 µM
SK-MEL-2 melanoma
  TGI: > 100 µM
HCT-116 colon
  TGI: > 100 µM
NCI-H460 lung
  TGI: > 100 µM
TK-10 renal
  TGI: > 100 µM
RXF-631 renal
  TGI: > 100 µM
OVCAR-5 ovarian
  TGI: > 100 µM
KM12 colon
  TGI: > 100 µM
SK-MEL-5 melanoma
  TGI: > 100 µM
NCI-H23 lung
  TGI: > 100 µM
LOX IMVI melanoma
  TGI: > 100 µM
UO-31 renal
  TGI: > 100 µM
SNB-75 CNS
  TGI: > 100 µM
HT29 colon
  TGI: > 100 µM
LXFL 529 NSCLC
  TGI: > 100 µM
OVCAR-3 ovarian
  TGI: > 100 µM
EKVX NSCLC
  TGI: > 100 µM
MOLT-4 leukemia
  TGI: > 100 µM
HOP-18 NSCLC
  TGI: > 100 µM
M19-MEL melanoma
  TGI: > 100 µM
HOP-62 NSCLC
  TGI: > 100 µM
SNB-78 CNS
  TGI: > 100 µM
786-0 renal
  TGI: > 100 µM
NCI-H226 lung
  TGI: > 100 µM
OVCAR-8 ovarian
  TGI: > 100 µM
COLO 205 colon
  TGI: > 100 µM
SK-MEL-28 melanoma
  TGI: > 100 µM
CCRF-CEM leukemia
  TGI: > 100 µM
M14 melanoma
  TGI: > 100 µM
SNB-19 CNS
  TGI: > 100 µM
HL-60(TB) leukemia
  TGI: > 100 µM
IGROV1 ovarian
  TGI: > 100 µM
CAKI-1 renal
  TGI: > 100 µM
OVCAR-4 ovarian
  TGI: > 100 µM
SF-539 CNS
  TGI: > 100 µM
SW-620 colon
  TGI: > 100 µM
